Source: US20260042755A1, “GPR6 INVERSE AGONISTS” (MapLight Therapeutics, Inc., priority 2022, published 2026)

Tests used:
GPR6 = target: T1, GPR6 (Homo sapiens, UniProt P46095); experiment: GPR6 antagonist functional cAMP assay (LANCE Ultra cAMP TR-FRET, CHO cells stably expressing GPR6); type: cell-based
T1 construct: expressed in transfected cells; host or cells: CHO cells
How it was run: (§1)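 Cells in Krebs-Ringer buffer with 0.1% BSA and 150 μM Ro 20-1724 PDE inhibitor were exposed to compounds for 45 min at 37 °C (0.1% DMSO). cAMP was read by TR-FRET at 665 nm; IC50s came from 4-parameter fits normalized to DMSO and reference compound.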

GPR3 = target: T2, GPR3 (Homo sapiens, UniProt P46089); experiment: GPR3 antagonist functional cAMP assay (LANCE Ultra cAMP TR-FRET, CHO cells stably expressing GPR3); type: cell-based
T2 construct: expressed in transfected cells; host or cells: CHO cells
T2 sequence (P46089 whole entry, species assumed): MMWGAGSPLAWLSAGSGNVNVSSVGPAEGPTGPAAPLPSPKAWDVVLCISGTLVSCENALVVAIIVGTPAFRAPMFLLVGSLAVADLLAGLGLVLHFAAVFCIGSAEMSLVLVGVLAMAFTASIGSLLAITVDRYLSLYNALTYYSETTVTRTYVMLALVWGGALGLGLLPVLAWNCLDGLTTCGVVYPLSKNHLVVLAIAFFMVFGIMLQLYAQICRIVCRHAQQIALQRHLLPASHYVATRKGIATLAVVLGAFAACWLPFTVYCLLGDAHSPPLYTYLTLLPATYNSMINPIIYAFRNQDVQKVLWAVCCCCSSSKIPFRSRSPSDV
How it was run: as §1

[1] = CHO cells stably expressing GPR6, cAMP assay (Example 24)
[2] = CHO cells stably expressing GPR3, cAMP assay (Example 24)

T1 sequence (P46095 whole entry): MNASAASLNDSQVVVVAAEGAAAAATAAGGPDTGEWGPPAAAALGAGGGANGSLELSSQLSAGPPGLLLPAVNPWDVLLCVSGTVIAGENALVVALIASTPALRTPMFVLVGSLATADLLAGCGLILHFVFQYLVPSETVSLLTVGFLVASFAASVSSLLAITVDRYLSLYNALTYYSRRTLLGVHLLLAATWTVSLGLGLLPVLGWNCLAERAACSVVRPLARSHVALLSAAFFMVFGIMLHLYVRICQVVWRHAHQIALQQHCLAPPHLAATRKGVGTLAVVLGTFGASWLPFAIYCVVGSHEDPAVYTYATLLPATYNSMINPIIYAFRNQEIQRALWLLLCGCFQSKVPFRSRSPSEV

Compound	IC50 (GPR6; [1]) [nM]	IC50 (GPR3; [2]) [nM]	IC50 (GPR6; procedure of Example 24) [nM]	IC50 (GPR3; procedure of Example 24) [nM]	also measured
CC(=O)N1CCc2nc(N3CCC(Oc4ccc(F)cc4F)CC3)c(C3CCC(O)CC3)nc2C1 (stereo not shown) [Compound 374, 1-(2-(4-(2,4-difluorophenoxy)piperidin-1-yl)-3-(4-hydroxycyclohexyl)-7,8-dihydropyrido[3,4-b]pyrazin-6(5H)-yl)ethan-1-one]	–	–	1000 to 30000	1000 to 30000	–
Cn1cc(-c2nc3cnc(C(=O)O)cc3nc2N2CCC(Oc3ccc(F)cc3F)CC2)cn1 [Compound 314, 2-[4-(2,4-difluorophenoxy)piperidin-1-yl]-3-(1-methyl-1H-pyrazol-4-yl)pyrido[3,4-b]pyrazine-7-carboxylic acid]	–	–	1000 to 30000	1000 to 30000	–
COC(=O)c1cc2nc(N3CCC(Oc4ccc(F)cc4F)CC3)c(-c3cnn(C)c3)nc2cn1 [Compound 251, methyl 2-[4-(2,4-difluorophenoxy)piperidin-1-yl]-3-(1-methyl-1H-pyrazol-4-yl)pyrido[3,4-b]pyrazine-7-carboxylate]	1000 to 30000	1000 to 30000	–	–	–
CC(C)(O)C(C)(O)c1cc2nc(N3CCC(Oc4ccc(F)cc4F)CC3)c(-c3cnn(CF)c3)nc2cn1 (stereo not shown) [Compound 636, 2-{2-[4-(2,4-difluorophenoxy)-1-piperidyl]-3-[1-(fluoromethyl)-4-pyrazolyl]-1,4,6-triaza-7-naphthyl}-3-methyl-2,3-butanediol]	–	–	100 to 1000	1000 to 30000	–
Cn1cc(-c2nc3cnc(C#N)cc3nc2N2CCC(Oc3ccc(F)cc3F)CC2)cn1 [Compound 293, 2-[4-(2,4-difluorophenoxy)piperidin-1-yl]-3-(1-methyl-1H-pyrazol-4-yl)pyrido[3,4-b]pyrazine-7-carbonitrile]	–	–	1000 to 30000	1000 to 30000	–
Cn1cc(-c2nc3cnc(CCO)cc3nc2N2CCC(Oc3ccc(F)cc3F)CC2)cn1 [Compound 468, 2-{2-[4-(2,4-difluorophenoxy)piperidin-1-yl]-3-(1-methyl-1H-pyrazol-4-yl)pyrido[3,4-b]pyrazin-7-yl}ethan-1-ol]	100 to 1000	1000 to 30000	–	–	–
Cn1cc(-c2nc3cc(C(C)(O)CO)ncc3nc2N2CCC(Oc3ccc(F)cc3F)CC2)cn1 (single isomer, unassigned) [Compound 692]	–	–	100 to 1000	1000 to 30000	–
COC(CO)c1cc2nc(N3CCC(Oc4ccc(F)cc4F)CC3)c(-c3cnn(C)c3)nc2cn1 (stereo not shown) [Compound 438, 2-(2-(4-(2,4-difluorophenoxy)piperidin-1-yl)-3-(1-methyl-1H-pyrazol-4-yl)pyrido[3,4-b]pyrazin-7-yl)-2-methoxyethan-1-ol]	100 to 1000	1000 to 30000	–	–	–
CCn1cc(-c2nc3cnc(C(O)C(C)(C)O)cc3nc2N2CCC(Oc3cc(Cl)ccc3Cl)CC2)cn1 (stereo not shown) [Compound 441, 1-{2-[4-(2,5-dichlorophenoxy)piperidin-1-yl]-3-(1-ethyl-1H-pyrazol-4-yl)pyrido[3,4-b]pyrazin-7-yl}-2-methylpropane-1,2-diol]	100 to 1000	1000 to 30000	–	–	–
Cn1cc(-c2nc3cncc(C#N)c3nc2N2CCC(Oc3ccc(F)cc3F)CC2)cn1 [Compound 436, 2-[4-(2,4-difluorophenoxy)piperidin-1-yl]-3-(1-methyl-1H-pyrazol-4-yl)pyrido[3,4-b]pyrazine-8-carbonitrile]	1000 to 30000	1000 to 30000	–	–	–
COC[C@H]1CN(Cc2ccc(F)cc2F)CCN1c1nc2ccncc2nc1-c1cnn(C)c1 (single isomer, unassigned) [Compound 238]	1000 to 30000	1000 to 30000	–	–	–
CC(=O)N1CCc2nc(N3CCN(Cc4cccs4)CC3)c(-c3cnn(C)c3)nc2C1 [Compound 515, 1-[3-(1-methyl-4-pyrazolyl)-2-(4-thenyl-1-piperazinyl)-5,6,7,8-tetrahydro-1,4,6-triaza-6-naphthyl]-1-ethanone]	–	–	–	–	IC50 (GPR6; CHO cells stably expressing GPR6, cAMP assay): 1000 to 30000 nM; IC50 (GPR3; CHO cells stably expressing GPR3, cAMP assay): 1000 to 30000 nM
Cn1cc(-c2nc3cnc(C(O)CC#N)cc3nc2N2CCC(Oc3ccc(F)cc3F)CC2)cn1 (stereo not shown) [Compound 402, 3-(2-(4-(2,4-difluorophenoxy)piperidin-1-yl)-3-(1-methyl-1H-pyrazol-4-yl)pyrido[3,4-b]pyrazin-7-yl)-3-hydroxypropanenitrile]	1000 to 30000	1000 to 30000	–	–	–
CC(C)(O)C(=O)N1CCc2nc(N3CCC(Oc4ccc(F)cc4F)CC3)c(-c3ccc(F)c(N)n3)nc2C1 [Compound 639, 1-{3-(6-amino-5-fluoro-2-pyridyl)-2-[4-(2,4-difluorophenoxy)-1-piperidyl]-5,6,7,8-tetrahydro-1,4,6-triaza-6-naphthyl}-2-hydroxy-2-methyl-1-propanone]	–	–	100 to 1000	100 to 1000	–

Now from value to compound, other results behind:

IC50 (GPR6; [1]) [nM]	IC50 (GPR3; [2]) [nM]	IC50 (GPR6; procedure of Example 24) [nM]	IC50 (GPR3; procedure of Example 24) [nM]	Compound	also measured
1000 to 30000	1000 to 30000	–	–	CC(=O)N1CCc2nc(N3CCC(Oc4ccc(F)cc4F)CC3)c(-c3cccc(C(=O)N(C)C)n3)nc2C1 [Compound 131, 6-(6-acetyl-2-(4-(2,4-difluorophenoxy)piperidin-1-yl)-5,6,7,8-tetrahydropyrido[3,4-b]pyrazin-3-yl)-N,N-dimethylpicolinamide]	–
≥ 30000	≥ 30000	–	–	CC(=O)N1CCc2nc(N3CCC(Oc4ccc(F)cc4F)CC3)c(-c3ccc[nH]c3=O)nc2C1 [Compound 157, 3-{6-acetyl-2-[4-(2,4-difluorophenoxy)piperidin-1-yl]-5H,6H,7H,8H-pyrido[3,4-b]pyrazin-3-yl}-1,2-dihydropyridin-2-one]	–
1000 to 30000	1000 to 30000	–	–	CC(=O)N1CCc2nc(N3CCC(Oc4ccc(F)cc4F)CC3)c(-c3cnn4c3CNCC4)nc2C1 [Compound 108, 1-{2-[4-(2,4-difluorophenoxy)piperidin-1-yl]-3-{4H,5H,6H,7H-pyrazolo[1,5-a]pyrazin-3-yl}-5H,6H,7H,8H-pyrido[3,4-b]pyrazin-6-yl}ethan-1-one]	–
1000 to 30000	1000 to 30000	–	–	CC(=O)N1CCc2nc(N3CCC(Oc4ccc(F)cc4F)CC3)c(C3CCC(=O)CC3)nc2C1 [Compound 404, 4-(6-acetyl-2-(4-(2,4-difluorophenoxy)piperidin-1-yl)-5,6,7,8-tetrahydropyrido[3,4-b]pyrazin-3-yl)cyclohexan-1-one]	–
–	–	1000 to 30000	1000 to 30000	COc1ccc(CN2CCN(c3nc4c(nc3-c3cnn(C)c3)CN(C(C)=O)CC4)CC2)cc1F [Compound 319, 1-(2-{4-[(3-fluoro-4-methoxyphenyl)methyl]piperazin-1-yl}-3-(1-methyl-1H-pyrazol-4-yl)-5H,6H,7H,8H-pyrido[3,4-b]pyrazin-6-yl)ethan-1-one]	–
1000 to 30000	1000 to 30000	–	–	CC(=O)N1CC=C(c2nc3c(nc2N2CCC(Oc4ccc(F)cc4F)CC2)CCN(C(C)=O)C3)C1 [Compound 72, 1-(3-{6-acetyl-2-[4-(2,4-difluorophenoxy)piperidin-1-yl]-5H,6H,7H,8H-pyrido[3,4-b]pyrazin-3-yl}-2,5-dihydro-1H-pyrrol-1-yl)ethan-1-one]	–
–	–	1000 to 30000	1000 to 30000	CC(=O)N1CCc2nc(N3CCC(COc4cc(F)ccc4F)C3)c(-c3cnn(C)c3)nc2C1 (stereo not shown) [Compound 364, 1-(2-{3-[(2,5-difluorophenoxy)methyl]pyrrolidin-1-yl}-3-(1-methyl-1H-pyrazol-4-yl)-5H,6H,7H,8H-pyrido[3,4-b]pyrazin-6-yl)ethan-1-one]	–
1000 to 30000	1000 to 30000	–	–	CCn1cc(-c2nc3c(nc2N2CCC(Oc4ccc(F)cc4F)CC2)CCN(C(=O)OC(C)(C)C)C3)cn1 [Compound 260, tert-butyl 2-[4-(2,4-difluorophenoxy)piperidin-1-yl]-3-(1-ethyl-1H-pyrazol-4-yl)-5H,6H,7H,8H-pyrido[3,4-b]pyrazine-6-carboxylate]	–
100 to 1000	1000 to 30000	–	–	CC(=O)N1CCc2nc(N3CCC(Oc4ccc(F)cc4F)CC3)c(-c3cccc(C)n3)nc2C1 [Compound 68, 1-{2-[4-(2,4-difluorophenoxy)piperidin-1-yl]-3-(6-methylpyridin-2-yl)-5H,6H,7H,8H-pyrido[3,4-b]pyrazin-6-yl}ethan-1-one]	–
100 to 1000	1000 to 30000	–	–	CC(=O)N1Cc2nc(-c3cnn(C)c3)c(N3CCC(Oc4ccc(F)cc4F)CC3)nc2CC1C (stereo not shown) [Compound 394, 1-{2-[4-(2,4-difluorophenoxy)piperidin-1-yl]-7-methyl-3-(1-methyl-1H-pyrazol-4-yl)-5H,6H,7H,8H-pyrido[3,4-b]pyrazin-6-yl}ethan-1-one]	–
1000 to 30000	1000 to 30000	–	–	CC(=O)N1CCc2nc(N3CCC(Oc4ccc(F)cc4F)CC3)c(-c3cnc[nH]3)nc2C1 [Compound 84, 1-{2-[4-(2,4-difluorophenoxy)piperidin-1-yl]-3-(1H-imidazol-5-yl)-5H,6H,7H,8H-pyrido[3,4-b]pyrazin-6-yl}ethan-1-one]	–
100 to 1000	1000 to 30000	–	–	COc1ncc(-c2nc3c(nc2N2CCC(Oc4ccc(F)cc4F)CC2)CCN(C(C)=O)C3)nc1OC [Compound 215, 1-{2-[4-(2,4-difluorophenoxy)piperidin-1-yl]-3-(5,6-dimethoxypyrazin-2-yl)-5H,6H,7H,8H-pyrido[3,4-b]pyrazin-6-yl}ethan-1-one]	–
–	–	< 100	1000 to 30000	COc1nc(-c2nc3c(nc2N2CCC(Oc4ccc(F)cc4F)CC2)CCN(C(C)=O)C3)cnc1Cl [Compound 308]	–
100 to 1000	1000 to 30000	–	–	COC1C=C(c2nc3c(nc2N2CCC(Oc4ccc(F)cc4F)CC2)CCN(C(C)=O)C3)CCC1 (stereo not shown) [Compound 247, 1-{2-[4-(2,4-difluorophenoxy)piperidin-1-yl]-3-(3-methoxycyclohex-1-en-1-yl)-5H,6H,7H,8H-pyrido[3,4-b]pyrazin-6-yl}ethan-1-one]	–
–	–	< 100	1000 to 30000	Cn1cc(-c2nc3cc(C(O)C(C)(C)O)ncc3nc2N2CCN(Cc3ccc(F)cc3F)CC2)cn1 (stereo not shown) [Compound 268, 1-(3-{4-[(2,4-difluorophenyl)methyl]piperazin-1-yl}-2-(1-methyl-1H-pyrazol-4-yl)pyrido[3,4-b]pyrazin-7-yl)-2-methylpropane-1,2-diol]	–
